A short description of data set [1]: Stability of zinc pyrithione aqueous dispersion: layer separation degree via centrifugation, naked eye. Conditions: zinc pyrithione aqueous dispersion including the antiseptic, layer separation degree (supernatant height / total height) via centrifugation. It is filed as physicochemical. On the procedure: (§1) First, a zinc pyrithione aqueous dispersion including an antiseptic which was identified to have antiseptic activity was prepared and then stored at room temperature (R.T.), at a temperature ranging from 10° C. to 20° C., or 60° C., and variation in physical properties related to stability and dispersibility were checked.
(§2) Variation in physical properties was determined depending on whether or not assay, viscosity, pH and particle size were changed, and variation in dispersibility was determined by checking layer separation degree using centrifugation and measuring dispersion stability using Turbiscan for detecting particle size variation and phase separation.
Stability was evaluated by checking a layer separation degree (production of supernatant) using centrifugation by the naked eye and was divided into grades based on the proportion of the height of the layer-separated supernatant with respect to the total height of the sample. With respect to the grades, layer separation degree (production of supernatant) of less than 5% was regarded as “high”, layer separation degree of 10% or less was regarded as “medium-high”, layer separation degree of 15% or less was regarded as “medium”, layer separation degree of 20% or less was regarded as “medium-low” and layer separation degree of higher than 20% was regarded as “low”.

Data set [2] is described as follows: Dispersion stability by Turbiscan (Turbiscan stability index). It is filed as physicochemical. The settings on record: zinc pyrithione aqueous dispersion with the antiseptic stored at 60° C. for 2 weeks, lower = more stable, 0 = no variation. On the procedure:
as §1, §2
Meanwhile, from the result of determination of stability via separate testing of the zinc pyrithione aqueous dispersion composition using the Turbiscan, it could seen that the result obtained by storing at 60° C. for 2 weeks was similar to the result obtained by storing at room temperature for 3 months. Therefore, stability of the zinc pyrithione aqueous dispersion was compared based on stability index (Turbiscan stability index) associated with the result obtained by storing the test subject substances at 60° C. for 2 weeks.
In addition, the stability of conventionally used antiseptics was measured as Turbiscan-related stability and the result thus obtained is shown as a stability index in the following Table 2. […]

Data set [3] deals with Escherichia coli. Description: Challenge test (antibiotic activity) against E. coli. Conditions: day on which all strains completely died; inoculum 1.0×10^6 cells/ml, 37° C., sampling days 1, 2, 3, 7; sample without zinc pyrithione, pH 5.5 to 9.0. It is filed as cell-based. On the procedure: (§3) Respective samples were inoculated with three kinds of bacteria and two kinds of fungus and cultured for 7 days in order to measure antibiotic activity. On the first, second, third and seventh days, sampling was conducted, the sample was spread on a solid medium and antibiotic activity was checked. Strains used to measure antibiotic activity were Escherichia coli, Staphylococcus aureus, Pseudomonas aeruginosa for bacteria, and Candida albicans and Aspergillus niger for fungus. Regarding the media used respectively for the strains, TSA (tryptic soy agar) and NB (nutrient broth) were used for the three types of bacteria, and SDA (Sabouraud dextrose agar) and YM (yeast extract and malt extract) were used for Candida albicans (C. albicans), and SDA (Sabouraud dextrose agar) and MD (malt extract and dextrose) were used for Aspergillus niger (A. niger).
(§4) Antibiotic activity was evaluated based on the day on which all strains completely died, rather than lived and grew in the sample spread on the solid medium. First day death was considered to be excellent, second day death was considered to be good, third day death was considered to be medium, seventh day death was considered to be bad and no death until the seventh day was considered to be extremely bad.
(§5) A more detailed test method is as follows. […] 50 g of an aqueous dispersion supplemented with a suitable concentration of antibiotic agent was added to the container to prepare a sample. In consideration of the test method, in order to test zinc pyrithione having antibiotic activity, antibiotic activity of zinc pyrithione was preferably removed using a neutralization agent, but water was inevitably used to adjust a predetermined volume without adding zinc pyrithione due to absence of a suitable neutralization agent.
(§6) The prepared sample was inoculated with 1.0×10^6 cells/ml of E. coli, S. aureus and P. aeruginosa, and with 1.0×10^5 cells/ml of C. albicans and A. niger. Then, E. coli, S. aureus and P. aeruginosa were cultured at 37° C., while C. albicans and A. niger were cultured at 30° C. At the point of times of 1, 2, 3 and 7 days after culture, […] of the sample was obtained and spread on a solid medium and E. coli, S. aureus and P. aeruginosa were then cultured at 37° C. for 1 day for, and C. albicans and A. niger were cultured at 30° C. for 2 days. Then, whether the strains were alive or dead was checked. The respective antiseptics were used with reference to optimal pH, dosage and MIC recommended by the company of manufacture, wherein the test pH conditions were pH 5.5 to 9.0 at which zinc pyrithione was stable.

Data set [4] has as its system Staphylococcus aureus. Description: Challenge test (antibiotic activity) against S. aureus. It is filed as cell-based. Conditions: day on which all strains completely died; inoculum 1.0×10^6 cells/ml, 37° C., sampling days 1, 2, 3, 7; sample without zinc pyrithione, pH 5.5 to 9.0. On the procedure: as §3, §4, §5, §6
Data set [5] relates to Aspergillus niger. Description: Challenge test (antibiotic activity) against A. niger. It is filed as cell-based. Conditions: for Challenge test A. niger (antibiotic activity grade): day on which all strains completely died, inoculum 1.0×10^5 cells/ml, 30° C., sampling days 1, 2, 3, 7, sample without zinc pyrithione, pH 5.5 to 9.0. On the procedure:
as §3, §4, §5, §6

The subject of data set [6] is Candida albicans. Put plainly: Challenge test (antibiotic activity) against C. albicans. It is filed as cell-based. The settings on record: day on which all strains completely died; inoculum 1.0×10^5 cells/ml, 30° C., sampling days 1, 2, 3, 7; sample without zinc pyrithione, pH 5.5 to 9.0. As for the experimental part:
as §3, §4, §5, §6

Data set [7] relates to Pseudomonas aeruginosa. Description: Challenge test (antibiotic activity) against P. aeruginosa. It is filed as cell-based. The settings on record: day on which all strains completely died; inoculum 1.0×10^6 cells/ml, 37° C., sampling days 1, 2, 3, 7; sample without zinc pyrithione, pH 5.5 to 9.0. As for the experimental part: as §3, §4, §5, §6

Where a name gives a salt, the structure may show the parent alone.

For `CCCCC(O)CO` (stereo not shown) [1,2-hexanediol], the “Stability of zinc pyrithione aqueous dispersion” value in data set [1] was “Medium (layer separation degree of 15% or less was regarded as “medium”)”.
Still for that read-out and setting: as for `CCCCCCC(O)CO` (stereo not shown) [1,2-octanediol], the entry is “Medium (layer separation degree of 15% or less was regarded as “medium”)”.
Still for that read-out and setting: as for `OCc1ccccc1` [Benzyl alcohol], the entry is “Medium-low (layer separation degree of 20% or less was regarded as “medium-low”)”.
For the molecule `CC1(C)C(=O)N(CO)C(=O)N1CO` [DMDMH, dimethylol dimethylhydantoin, reference compound], the “Stability index at 60° C. × 2 weeks” value in data set [2] turned out to be 3.9. In addition, the “Stability of zinc pyrithione aqueous dispersion” value in data set [1] is “High (layer separation degree (production of supernatant) of less than 5% was regarded as “high”)”. For the same molecule, the “Challenge test E. coli (antibiotic activity grade)” value (from here on “Challenge test E. coli”) in data set [3] is on record as “Excellent (First day death was considered to be excellent)”. The “Challenge test S. aureus (antibiotic activity grade)” value (“Challenge test S. aureus” for short) in data set [4] is “Excellent (First day death was considered to be excellent)”. For the same molecule, the “Challenge test A. niger (antibiotic activity grade)” value (shortened to “Challenge test A. niger”) in data set [5] is on record as “Excellent (First day death was considered to be excellent)”. Moreover, the “Challenge test C. albicans (antibiotic activity grade)” value (shortened to “Challenge test C. albicans”) in data set [6] is “Excellent (First day death was considered to be excellent)”. In data set [7], the “Challenge test P. aeruginosa (antibiotic activity grade)” value (shortened to “Challenge test P. aeruginosa”) is on record as “Excellent (First day death was considered to be excellent)”.
As to `Cn1sccc1=O` [MIT, methylisothiazolinone, reference compound], the “Stability index at 60° C. × 2 weeks” value in data set [2] amounted to 3.9. Further, the “Stability of zinc pyrithione aqueous dispersion” value in data set [1] was “High (layer separation degree (production of supernatant) of less than 5% was regarded as “high”)”. Further, the “Challenge test E. coli” value in data set [3] is “Excellent (First day death was considered to be excellent)”. Also, the “Challenge test S. aureus” value in data set [4] is given as “Excellent (First day death was considered to be excellent)”. For the same molecule, the “Challenge test A. niger” value in data set [5] was “Excellent (First day death was considered to be excellent)”. In data set [6], the “Challenge test C. albicans” value was “Excellent (First day death was considered to be excellent)”. Moreover, in data set [7], the “Challenge test P. aeruginosa” value is “Excellent (First day death was considered to be excellent)”.
With `C/C=C/C=C/C(=O)[O-].[K+]` [Potassium sorbate], the “Challenge test E. coli” value in data set [3] is “Good (second day death was considered to be good)”. The “Challenge test S. aureus” value in data set [4] was “Good (second day death was considered to be good)”. In data set [5], the “Challenge test A. niger” value is “Good (second day death was considered to be good)”. The “Challenge test P. aeruginosa” value in data set [7] is given as “Good (second day death was considered to be good)”.
With `O=C([O-])c1ccccc1.[Na+]` [Sodium benzoate], the “Challenge test E. coli” value in data set [3] is reported as “Good (second day death was considered to be good)”. Moreover, the “Challenge test S. aureus” value in data set [4] is on record as “Good (second day death was considered to be good)”. For the same molecule, in data set [5], the “Challenge test A. niger” value is given as “Good (second day death was considered to be good)”. Moreover, in data set [7], the “Challenge test P. aeruginosa” value is “Good (second day death was considered to be good)”.
For `O=S([O-])S(=O)(=O)[O-].[Na+].[Na+]` [Sodium metabisulfite], the “Challenge test E. coli” value in data set [3] is “Good (second day death was considered to be good)”. In data set [4], the “Challenge test S. aureus” value is given as “Good (second day death was considered to be good)”. Moreover, the “Challenge test A. niger” value in data set [5] is reported as “Good (second day death was considered to be good)”. Besides, in data set [7], the “Challenge test P. aeruginosa” value is given as “Good (second day death was considered to be good)”.
As for `O=C([O-])c1ccccc1O.[Na+]` [Sodium salicylate], the “Challenge test E. coli” value in data set [3] is given as “Good (second day death was considered to be good)”. Further, the “Challenge test S. aureus” value in data set [4] is on record as “Good (second day death was considered to be good)”. Also, the “Challenge test A. niger” value in data set [5] is given as “Good (second day death was considered to be good)”. Moreover, in data set [7], the “Challenge test P. aeruginosa” value was “Good (second day death was considered to be good)”.
With `O=S([O-])[O-].[Na+].[Na+]` [Sodium sulfite], the “Stability of zinc pyrithione aqueous dispersion” value in data set [1] is reported as “High (layer separation degree (production of supernatant) of less than 5% was regarded as “high”)”. The “Challenge test E. coli” value in data set [3] is “Good (second day death was considered to be good)”. Moreover, in data set [4], the “Challenge test S. aureus” value is reported as “Good (second day death was considered to be good)”. Also, the “Challenge test A. niger” value in data set [5] was “Good (second day death was considered to be good)”. Also, the “Challenge test P. aeruginosa” value in data set [7] is “Good (second day death was considered to be good)”.
With `Cc1ncc(C[n+]2csc(CCO)c2C)c(N)n1` [Thiamine dilauryl sulfate, thiamine dilauryl sulphate], the “Challenge test E. coli” value in data set [3] was “Good (second day death was considered to be good)”. Further, the “Challenge test S. aureus” value in data set [4] is recorded as “Excellent (First day death was considered to be excellent)”. In addition, in data set [5] (conclusion in words from the challenge test), the “Antibiotic activity to A. niger” value is on record as “vulnerable”. The “Challenge test A. niger” value in data set [5] was “Bad (seventh day death was considered to be bad)”. Further, in data set [6], the “Challenge test C. albicans” value is “Good (second day death was considered to be good)”. The “Challenge test P. aeruginosa” value in data set [7] is on record as “Good (second day death was considered to be good)”.
As for Ethylhexyl glycerin, the “Challenge test E. coli” value in data set [3] is reported as “Good (second day death was considered to be good)”. For the same molecule, the “Challenge test S. aureus” value in data set [4] is recorded as “Good (second day death was considered to be good)”. Also, the “Challenge test A. niger” value in data set [5] is “Medium (third day death was considered to be medium)”. The “Challenge test C. albicans” value in data set [6] is “Good (second day death was considered to be good)”. The “Challenge test P. aeruginosa” value in data set [7] was “Extremely bad (no death until the seventh day was considered to be extremely bad)”.

Source of the values: patent publication US20170312293A1, “ANTIMICROBIAL WATER DISPERSIBLE COMPOSITION COMPRISING ZINC PYRITHIONE” (KOLON LIFE SCIENCE, INC., priority 2014, published 2017).
